Measurements from US20250367233A1, “NOVEL PHARMACEUTICAL COMPOSITION CONTAINING IRON AND MEGLUMINE” (priority 2024, published 2025).

Assay: Solubility of ferric meglumine / meglumine in solvents

**Q.** For CNC[C@H](O)[C@@H](O)[C@H](O)[C@H](O)CO [Meglumine, N-Methyl-D-glucamine], which solubility in water is on record?
**A.** soluble
